Reference: US20100092562A1, “SUSTAINED-RELEASE DRUG DELIVERY COMPOSITIONS AND METHODS” (priority 2002, published 2010)
Where a name gives a salt, the structure may show the parent alone. Read-outs that look alike come from different tables or passages of the source.

Columns and labels:
[1] = cited from earlier work
[2] = Release profile of base vs salt forms of drugs in liquid controlled release compositions, USP Apparatus 2; assay type: physicochemical; conditions: liquid sustained release compositions, 65% W/W sucrose; stored 3 weeks at room temperature
[3] = Effect of sucrose concentration in dispersion medium on albuterol release, USP Apparatus 2; assay type: physicochemical; conditions: alginate beads, 20% coating; stored 1 week at room temperature
Experimental: The experiment was carried out with 16 mg of albuterol bound to the alginic acid resin, with 20% coating, and 40%, 50%, 60% or 65% W/W of sucrose in the dispersion medium. First, the alginate beads were loaded with the drug albuterol, where 5% of albuterol and 5% of alginic acid were used. Albuterol and alginic acid powders were placed in a beaker, 100 ml of water was added, and the mixture was stirred until a homogenous gel was formed. Then, 70% microcrystalline cellulose and 20% lactose were placed into a bowl of a low shear mixer and pre-blended with a spatula. Then, the albuterol-alginate gel was incrementally added to the microcrystalline cellulose and lactose blend and mixed to produce a wet mass. Additional 50 ml of water was added to the beaker to wash down its sides and added to the wet mass during its blending, and the resulting wet mass was transferred into a polyethylene bag. Then, the resulting wet mass material was extruded using a dome screen attachment with 0.8 mm screen size at 55 rpm, with the wet mass being gradually added into the extruder. Subsequently, the extrudate was spheronized at 750 rpm for approximately 30 sec, and then dried overnight in a convection oven at 45° C. The beads of appropriate size (material that passed through 16 mesh screens and retained on 20 mesh screens) were selected. […]

[4] = sodium alginate 0.877 g/L, 25° C.
Experimental: The studies were performed with a two compartment plexiglass dialysis cell (Hollenbeck laboratory) and having a cellulose membrane (molecular weight cutoff of 6000 Daltons) Bel-Art Products (Pequannock, N.J.) placed between the two cell compartments. […] The dialysis cell was shaken at 80 RPM in a thermostatic water bath at 25° C. until equilibrium was reached (30 h). The solution was removed from the drug compartment and the concentrations of free drug and polymer-bound drug measured by high performance liquid chromatography (“HPLC”).

[5] = single IR oral dose of 10 mg HC, 5 male human subjects
[6] = total drug concentration 4.97 (M × 10^4)
[7] = total drug concentration 5.47 (M × 10^4)
[8] = total drug concentration 5.96 (M × 10^4)
[9] = total drug concentration 6.96 (M × 10^4)
[10] = total drug concentration 7.95 (M × 10^4)
[11] = total drug concentration 8.95 (M × 10^4)
[12] = total drug concentration 9.94 (M × 10^4)
[13] = total drug concentration 14.91 (M × 10^4)
[14] = total drug concentration 19.88 (M × 10^4)
[15] = total drug concentration 24.86 (M × 10^4)
[16] = total drug concentration 30.40 (M × 10^4)
[17] = total drug concentration 41.20 (M × 10^4)
[18] = total drug concentration 50.70 (M × 10^4)

SMILES: COc1ccc2c3c1O[C@H]1C(=O)CC[C@H]4[C@@H](C2)N(C)CC[C@]314 (relative stereo) [hydrocodone, morphinan-6-one, 4,5-epoxy-3-methoxy-17-methyl-,(5)-, [R—(R*,R*)]-2,3-dihydroxybutane-dioate (1:1), hydrate (2:5)]
- elimination half-life of the parent-compound ([1]; in vivo): 3.8 to 4.5 h
- Tmax [1, 5]: approximately 1.3±0.3 hours
- mean peak serum concentration [1, 5]: 23.6 ± 5.2 ng/mL
- total excretion occurring in the first 24 hours ([1]; single oral dose): About 70%

SMILES: CN[C@@H](C)[C@@H](O)c1ccccc1 (relative stereo) [pseudoephedrine, benzenemethanol, -[1-(methylamino)ethyl]-, [S—(R*,R*)]-, hydrochloride]
- rate of release of salt forms vs base forms [2]: comparable
- half-life ([1]; affected by urinary pH): 9 to 16 h
- dose excreted unchanged in the urine within 24 hours of dosing ([1]; in vivo): up to 90%
- Tmax following administration ([1]; previously published studies): 1.5 to 2.4 h

SMILES: CC(C)(C)NCC(O)c1ccc(O)c(CO)c1 (stereo not shown) [albuterol]
- release from beads suspended in 50%, 60% and 65% W/W of sucrose vs 40% W/W of sucrose [3]: slower

SMILES: CN(C)CCC(c1ccc(Cl)cc1)c1ccccn1 (stereo not shown) [chlorpheniramine, 2-pyridinepropanamine, -(4-chlorophenyl)-N,N-dimethyl-, (Z)-2-butenedioate (1:1)]
- rate of release of salt forms vs base forms [2]: comparable
- excreted in the feces ([1]; in vivo): Less than 1%
- excreted in the urine (metabolism to monodesmethyl and didesmethyl compounds) ([1]; in vivo): up to 26%
- renal elimination, share of total excretion ([1]; in vivo): approximately 50%

SMILES: CC(C)NCC(O)COc1cccc2ccccc12.Cl (stereo not shown) [propranolol, propranolol hydrochloride]
- (l/g), r/(Df) [4, 6]: 4.88 L/g
- Amount bound per gram of polymer [4, 6]: 4.59 M × 10^4
- Bound drug concentration [4, 6]: 4.03 M × 10^4
- Free drug concentration [4, 6]: 0.94 M × 10^4
- (l/g), r/(Df) [4, 7]: 3.97 L/g
- Amount bound per gram of polymer [4, 7]: 4.84 M × 10^4
- Bound drug concentration [4, 7]: 4.25 M × 10^4
- Free drug concentration [4, 7]: 1.22 M × 10^4
- (l/g), r/(Df) [4, 8]: 3.60 L/g
- Amount bound per gram of polymer [4, 8]: 5.16 M × 10^4
- Bound drug concentration [4, 8]: 4.53 M × 10^4
- Free drug concentration [4, 8]: 1.43 M × 10^4
- (l/g), r/(Df) [4, 9]: 3.21 L/g
- Amount bound per gram of polymer [4, 9]: 5.86 M × 10^4
- Bound drug concentration [4, 9]: 5.14 M × 10^4
- Free drug concentration [4, 9]: 1.82 M × 10^4
- (l/g), r/(Df) [4, 10]: 2.49 L/g
- Amount bound per gram of polymer [4, 10]: 6.23 M × 10^4
- Bound drug concentration [4, 10]: 5.46 M × 10^4
- Free drug concentration [4, 10]: 2.49 M × 10^4
- (l/g), r/(Df) [4, 11]: 1.71 L/g
- Amount bound per gram of polymer [4, 11]: 6.12 M × 10^4
- Bound drug concentration [4, 11]: 5.37 M × 10^4
- Free drug concentration [4, 11]: 3.57 M × 10^4
- (l/g), r/(Df) [4, 12]: 1.62 L/g
- Amount bound per gram of polymer [4, 12]: 6.66 M × 10^4
- Bound drug concentration [4, 12]: 5.83 M × 10^4
- Free drug concentration [4, 12]: 4.10 M × 10^4
- (l/g), r/(Df) [4, 13]: 1.17 L/g
- Amount bound per gram of polymer [4, 13]: 8.61 M × 10^4
- Free drug concentration [4, 13]: 7.36 M × 10^4
- (l/g), r/(Df) [4, 14]: 0.87 L/g
- Amount bound per gram of polymer [4, 14]: 9.81 M × 10^4
- Bound drug concentration [4, 14]: 8.60 M × 10^4
- Free drug concentration [4, 14]: 11.28 M × 10^4
- (l/g), r/(Df) [4, 15]: 0.60 L/g
- Amount bound per gram of polymer [4, 15]: 10.73 M × 10^4
- Bound drug concentration [4, 15]: 9.41 M × 10^4
- Free drug concentration [4, 15]: 15.45 M × 10^4
- (l/g), r/(Df) [4, 16]: 0.57 L/g
- Amount bound per gram of polymer [4, 16]: 11.49 M × 10^4
- Bound drug concentration [4, 16]: 10.08 M × 10^4
- Free drug concentration [4, 16]: 20.32 M × 10^4
- (l/g), r/(Df) [4, 17]: 0.41 L/g
- Amount bound per gram of polymer [4, 17]: 12.37 M × 10^4
- Bound drug concentration [4, 17]: 10.84 M × 10^4
- Free drug concentration [4, 17]: 30.35 M × 10^4
- (l/g), r/(Df) [4, 18]: 0.33 L/g
- Amount bound per gram of polymer [4, 18]: 12.93 M × 10^4
- Bound drug concentration [4, 18]: 11.34 M × 10^4
- Free drug concentration [4, 18]: 39.36 M × 10^4
